Experimental data from patent US7009045B2 (priority 2000, dated 2006).
Where “and” joins values, the source holds several entries; their conditions need not be identical. Equal entries are not always repeated.

How the values were obtained:
C. famata = type: cell-based, Candida famata
[1] = test system: Candida famata regulatory mutants able to overproduce riboflavin; assay: Sensitivity to Co^+2 ions, solid Burkholder medium (Table 16); type: cell-based; parameters: key: +++: strong growth; ++: weak growth; +: very weak growth; —: absence of growth
Method: (§1) The sensitivity of the regulatory mutants of the yeast C. famata which overproduce riboflavin in iron rich medium probably due to defects in genes regulating repression (repression mutants), to different ions of heavy metals was studied. For this, the analyzed strains were streaked on the YPD plates and then were replica-plated on Burkholder synthetic medium containing leucine (40 μg/ml). The C.famata mutants L20105-40-1-11, L20105-40-1-17, L20105-3-2-1, L20105-3-2-8 and L20105-3-2-12 (all contained leu2 marker) accumulated 80–100 μg riboflavin/ml. The mutants #75, 4-48, 2-5 produced much higher amounts of riboflavin (200–250 μg/ml) but were prototrophs for leucine synthesis. Strain #75 was characterized by retarded growth comparing with other mutants. The strains VKM Y-9 (wild type) and L20105 (leu2) were used as the control strains.

[2] = test system: Candida famata regulatory mutants able to overproduce riboflavin; assay: Sensitivity to copper ions, solid Burkholder medium (Table 12); type: cell-based; parameters: key: +++: strong growth; ++: weak growth; —: absence of growth; conditions: L20105-3-2-4
[3] = test system: Candida famata regulatory mutants able to overproduce riboflavin; assay: as above; type: cell-based
Method: as §1
Mutants overproducing lower amounts of riboflavin appeared to be more sensitive to CuSO4 (0.15 mM) than that of the strains producing higher amounts of riboflavin (inhibitory concentration 0.5 mM) (Table 12).

[4] = test system: Candida famata regulatory mutants able to overproduce riboflavin; assay: Sensitivity to K2Cr2O7, solid Burkholder medium with 0.3 M sucrose (Table 13); type: cell-based
Method: as §1

[5] = test system: Pichia guilliermondii wild type and regulatory mutants (rib81); assay: Sensitivity after electroporation to K2Cr2O7, Burkholder medium with 0.3 M sucrose (Table 22); type: cell-based; parameters: key: +++: strong growth; ++: weak growth; —: absence of growth
[6] = test system: Pichia guilliermondii wild type and regulatory mutants (rib81); assay: as above; type: cell-based; parameters: key: +++: strong growth; ++: weak growth; +: very weak growth; —: absence of growth; conditions: K2Cr2O7 400 μM
[7] = test system: Candida famata regulatory mutants unable to overproduce riboflavin; assay: Sensitivity to K2Cr2O7, Burkholder medium (Table 10); type: cell-based
Excerpt: In the next experiments, the influence of cobalt and chromium ions on the growth and riboflavin synthesis of regulatory mutants having defects in derepression (derepression mutants) was studied.

[8] = test system: Pichia guilliermondii wild type and regulatory mutants (rib81); assay: Sensitivity after electroporation to K2Cr2O7, Burkholder medium with 0.3 M sucrose (Table 22); type: cell-based; conditions: Cr^+6 100 to 600 μM
[9] = test system: Candida famata regulatory mutants able to overproduce riboflavin; assay: Sensitivity to K2Cr2O7, solid Burkholder medium with 0.5% glycerol (Table 14); type: cell-based; parameters: key: +++: strong growth; ++: weak growth; +: very weak growth; —: absence of growth
Method: as §1

Compound: [Cl-].[Cl-].[Co+2] [CoCl2]
- concentration non-toxic for yeast growth that stimulates riboflavin synthesis (C. famata): 15 µg/mL
- higher concentrations tested that inhibited plate growth (C. famata): 50 µg/mL and 100 µg/mL
- maximal subinhibitory concentration which stimulates flavinogenesis (C. famata): 25 µg/mL
- growth ([1]; #2-5, Co^+2 3.75 μg/ml): +
- growth ([1]; #75, Co^+2 2.5 μg/ml): +
- growth ([1]; L20105-3-2-1, Co^+2 3.75 μg/ml): +
- growth ([1]; L20105-3-2-8, Co^+2 3.75 μg/ml): +
- growth ([1]; L20105-3-2-8, Co^+2 5.0 μg/ml): +
- growth ([1]; L20105-3-2-9, Co^+2 3.75 μg/ml): +
- growth ([1]; L20105-3-2-12, Co^+2 3.75 μg/ml): +
- growth ([1]; L20105-3-2-12, Co^+2 5.0 μg/ml): +
- growth ([1]; L20105-40-1-11, Co^+2 3.75 μg/ml): +

Compound: O=S(=O)([O-])[O-].[Cu+2] [CuSO4]
- growth ([2]; Cu^+2 0.3 mM): —
- growth ([2]; Cu^+2 8 mM): —
- inhibitory concentration, mutants overproducing lower amounts of riboflavin [3]: 0.15 mM
- inhibitory concentration, strains producing higher amounts of riboflavin [3]: 0.5 mM

Compound: [K+].[K+].[O]=[Cr](=[O])([O-])[O][Cr](=[O])(=[O])[O-] [K2Cr2O7]
- concentration inhibiting growth of strain #75 ([4]; medium with 0.3 M sucrose): 100 µM
- concentration inhibiting growth of strains with higher riboflavin production ([4]; medium with 0.3 M sucrose): 175 µM
- concentration totally inhibiting growth of mutants with lower levels of riboflavin overproduction ([4]; medium with 0.3 M sucrose): 125 µM
- effect of subinhibitory concentrations on flavinogenesis of all tested strains ([4]; riboflavin overproducers and wild-type strains): stimulated flavinogenesis
- growth ([5]; #9-20 (leu2), K2Cr2O7 100 μM): +++
- growth ([5]; #9-20 (leu2), K2Cr2O7 150 μM): +++
- growth ([5]; #9-20 (leu2), K2Cr2O7 200 μM): +++
- growth ([5]; #9-20 (leu2), K2Cr2O7 250 μM): +++
- growth ([5]; #9-20 (leu2), K2Cr2O7 300 μM): +++
- growth ([5]; #9-20 (leu2), K2Cr2O7 350 μM): +++
- growth ([5]; #9-20 (leu2), K2Cr2O7 450 μM): —
- growth ([5]; #9-20 (leu2), K2Cr2O7 500 μM): —
- growth ([5]; #9-20 (leu2), K2Cr2O7 550 μM): —
- growth ([5]; #9-20 (leu2), K2Cr2O7 600 μM): —
- growth ([5]; ATCC9058, K2Cr2O7 100 μM): +++
- growth ([5]; ATCC9058, K2Cr2O7 150 μM): +++
- growth ([5]; ATCC9058, K2Cr2O7 200 μM): +++
- growth ([5]; ATCC9058, K2Cr2O7 250 μM): +++
- growth ([5]; ATCC9058, K2Cr2O7 300 μM): +++
- growth ([5]; ATCC9058, K2Cr2O7 350 μM): +++
- growth ([5]; ATCC9058, K2Cr2O7 450 μM): —
- growth ([5]; ATCC9058, K2Cr2O7 500 μM): —
- growth ([5]; ATCC9058, K2Cr2O7 550 μM): —
- growth ([5]; ATCC9058, K2Cr2O7 600 μM): —
- growth ([6]; #9-20 (leu2)): +
- growth ([6]; ATCC9058): +
- growth of wild-type strains VKM Y-9 and L20105 (leu2) ([7]; Cr^+6 0.15 mM): grow at this concentration quite satisfactory
- concentration toxic for the derepression mutants ([7]; Cr^+6 ions as K2Cr2O7): 0.15 mM
- difference in sensitivity between regulatory mutants and the wild type [8]: no differences in sensitivity
- growth ([9]; #2-5, K2Cr2O7 65 μM): +
- growth ([9]; #2-5, K2Cr2O7 75 μM): +
- growth ([9]; L20105-3-2-4, K2Cr2O7 30 μM): +
- growth ([9]; L20105-3-2-4, K2Cr2O7 40 μM): +
- growth ([9]; L20105-3-2-8, K2Cr2O7 30 μM): +
- growth ([9]; L20105-3-2-8, K2Cr2O7 40 μM): +
- growth ([9]; L20105-3-2-12, K2Cr2O7 30 μM): +
- growth ([9]; L20105-3-2-12, K2Cr2O7 40 μM): +
